# Results: ChEMBL document CHEMBL2074272, “Proton-coupled oligopeptide transport by rat renal cortical brush border membrane vesicles: a functional analysis using ACE inhibitors to determine the isoform of the transporter” (Biochim Biophys Acta, 1998)
# pKi: −log10 of the molar value.
# How the values were obtained:
# [1] = target: T1, Solute carrier family 15 member 1 (Rattus norvegicus) (UniProt P51574); test: TP_TRANSPORTER: uptake in Xenopus laevis oocytes; assay type: functional, cell-based; conditions: Oocyte
# T1 sequence (whole entry): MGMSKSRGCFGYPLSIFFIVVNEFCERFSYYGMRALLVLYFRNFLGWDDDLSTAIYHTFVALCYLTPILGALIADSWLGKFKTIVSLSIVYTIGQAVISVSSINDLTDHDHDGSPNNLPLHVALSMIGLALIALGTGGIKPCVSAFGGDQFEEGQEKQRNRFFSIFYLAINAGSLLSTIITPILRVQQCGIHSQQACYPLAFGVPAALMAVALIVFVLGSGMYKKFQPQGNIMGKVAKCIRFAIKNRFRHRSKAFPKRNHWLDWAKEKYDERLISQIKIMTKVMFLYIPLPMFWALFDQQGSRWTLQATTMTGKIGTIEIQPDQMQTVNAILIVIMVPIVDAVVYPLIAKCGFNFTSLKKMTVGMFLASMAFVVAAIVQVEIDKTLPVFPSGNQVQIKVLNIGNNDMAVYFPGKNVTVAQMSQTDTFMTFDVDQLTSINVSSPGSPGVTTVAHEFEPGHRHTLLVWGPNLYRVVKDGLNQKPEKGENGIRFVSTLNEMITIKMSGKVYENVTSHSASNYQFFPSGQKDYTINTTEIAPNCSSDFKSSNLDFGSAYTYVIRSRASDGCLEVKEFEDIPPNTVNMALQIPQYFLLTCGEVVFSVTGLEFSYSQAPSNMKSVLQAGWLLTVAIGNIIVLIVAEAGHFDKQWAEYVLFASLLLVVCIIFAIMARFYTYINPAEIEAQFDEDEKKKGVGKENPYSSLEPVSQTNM
# [2] = target: T2, Solute carrier family 15 member 1 (Rattus norvegicus, UniProt P51574); test: TP_TRANSPORTER: inhibition of D-Phe-L-Gln uptake in Xenopus laevis oocytes; assay type: functional, cell-based, Oocyte
# T2 sequence (P51574 whole entry): T1 sequence (whole entry)
Structure (SMILES),Activity [1],pKi [2]
NC(=O)CC[C@H](NC(=O)[C@H](N)Cc1ccccc1)C(=O)O,substrate [+],–
C[C@H](CS)C(=O)N1CCC[C@H]1C(=O)O [CAPTOPRIL],–,2.06
CCOC(=O)[C@H](CCc1ccccc1)N[C@@H](C)C(=O)N1CCC[C@H]1C(=O)O [ENALAPRIL],–,2.37
